Assay results: patent publication US20050058733A1, “Health food products” (Daicho Kikaku Incorporated Company, priority 2001, published 2005)

How the values were obtained:
[1] = test system: patients with muscle disorders that occurred with aging; assay: tablets given to aged patients with muscle disorders (walking difficulties, proctoptosia, backaches, limb pains); type: in vivo, human; conditions: single regular dose of drugs admixed with one of the substances, without curcumin
Description: In Western medicine, it has been understood that proctoptosia and leg, lumbus and arm aches are attributable only to hematogenous disorders and resultant inflammation at local sites. […] Thus, it can be understood that these disorders are attributed to insufficient communication of brain commands to local sites and therefore the hematogenous disorders and onset of inflammation are problems caused by abnormal motions of muscles due to incomplete communication of brain commands.

[2] = test system: adrenaline secretion; assay: animal experiments using mice: secretomotory action on adrenaline, seen as blood glucose elevation; type: in vivo
Description: No studies have been conducted on the efficacy of curcumin, zingerone, or shogaol on the stimulation of adrenaline secretion.

SMILES	amelioration of proctoptosia and leg, lumbus and arm aches [1]	blood glucose levels (secretomotory action on adrenaline) [2]
C[C@H](CCC(=O)O)[C@H]1CC[C@H]2[C@@H]3[C@H](O)C[C@@H]4C[C@H](O)CC[C@]4(C)[C@H]3C[C@H](O)[C@]12C [cholic acid]	not significantly ameliorated	
COc1cc(/C=C/C(=O)/C=C(O)/C=C/c2ccc(O)c(OC)c2)ccc1O [curcumin]		remarkably elevated
C[C@H](CC[C@@H](O)C(CO)CO)C1CCC2C3C(C[C@H](O)[C@@]21C)[C@@]1(C)CC[C@@H](O)CC1C[C@H]3O (some centres unmarked) [scymnol, Scymnol]	not significantly ameliorated	
CCCCC/C=C/C(=O)CCc1ccc(O)c(OC)c1 [shogaol, (6)-shogaol]		remarkably elevated
COc1cc(CCC(C)=O)ccc1O [zingerone]		remarkably elevated
